According to patent publication US12024515B2, “Kifunensine derivatives” (University of Kansas, priority 2021, dated 2024):
Numbered stars: 1 amine (or outer) side, 2 acyl side, 3 side chain; on linkers, the order of the positions; unused ones are H or OH. Bridge positions count the residues as written; N and C are the ends. Square brackets hold non-standard residues; d marks the D form. Peptide text beside a SMILES is read from it. I, II: the chains in the order shown. Actinocin(9to1) = Cc1c2oc3c(C)ccc(C(=O)[*:1])c3nc-2c(C(=O)[*:2])c(N)c1=O; NMeV = CN[C@H](C(=O)O)C(C)C; Sar = CNCC(=O)O

Tests used:
[1] = tested on: Raji cells; test: CD20 expression in Raji cells (flow cytometry of surface CD20, western blotting); assay type: cell-based; settings: for cell surface expression of CD20: 48 hours, flow cytometry, Kif 25 μM, Swain 25 μM, DMJ 1 mM, DIM 1 mM (FIG. 1A, 1C); for effect on Kif mediated CD20 upregulation: with Kif 25 μM, actinomycin D 10 μg/ml, cycloheximide 100 μg/ml, 48 hours (FIG. 2A)
Description: (§1) FIGS. 1A-1E relate to kifunensine (“Kif”) induced expression of CD20. Raji cells were incubated with Kif for 48 hours and CD20 levels on the cell surface levels were analyzed by flow cytometry (FIG. 1A) and in whole cell lysate by western blotting (FIG. 1B). Raji cells were preincubated with Kif (25 μM), Swain (25 μM), DMJ (1 mM), and DIM (1 mM) or vehicle for 48 hours, and the cell surface levels of CD20 were analyzed by flow cytometry (FIG. 1C). Cells were incubated with Kif (25 μM) or vehicle for 48 hours and the cell surface levels of CD20 were analyzed by flow cytometry (FIG. 1D). Raji and rituximab resistant cells were incubated with Kif (25 μM) or vehicle for 48 hours and the cell surface levels of CD20 were analyzed by flow cytometry (FIG. 1E). Results are presented as a percentage of MFI of vehicle treated control cells (±SD). Statistical significance was determined with Kruskal-Wallis test, *P<0.033, **P<0.002, ****P<0.001, vs control.
Staining of surface antigens. Cells were treated for 48 hours with the described inhibitors at the indicated concentrations or with DMSO controls. Cells were then harvested, washed twice with cold flow buffer (PBS (GIBCO) containing 0.5% BSA and 0.1% sodium azide (Fisher)), stained for 1 hour with 0.25 μg of anti-CD20 mAb (clone 2H7) conjugated with Super Bright 645 (eBioscience, ThermoFisher Scientific), then washed twice with flow buffer, and finally the cells were incubated with flow buffer containing 2.5 μg/mL 7-aminoactinomycin (7-AAD, eBioscience, ThermoFisher Scientific) for 10 minutes prior to being analyzed using an Attune NxT Flow Cytometer. CD20 expression was assessed in 7-AAD negative cells.

[2] = tested on: panel of cells lines representing diffuse large B cell lymphoma, Burkitt lymphoma, and follicular lymphoma; test: Cell surface CD20 in a panel of B cell lymphoma cell lines (flow cytometry); assay type: cell-based; settings: 25 μM, 48 hours, flow cytometry (FIG. 1D)
Description: as §1
(§2) Staining of surface antigens. Cells were treated for 48 hours with the described inhibitors at the indicated concentrations or with DMSO controls. […] CD20 expression was assessed in 7-AAD negative cells.

[3] = tested on: rituximab resistant cell lines (Raji 2R, Raji 4RH, RL 4RH); test: Cell surface CD20 in rituximab resistant cell lines (flow cytometry); assay type: cell-based; settings: 25 μM, 48 hours (FIG. 1E)
Description: as §1, §2

[4] = tested on: patient derived primary CLL samples; test: CD20 expression in patient derived primary CLL samples; assay type: cell-based
[5] = tested on: MS4A1; test: CD20 mRNA (MS4A1) expression by RT-PCR; assay type: cell-based; settings: Raji cells, Kif 25 μM, 48 hours, RT-PCR (FIG. 2B)
Description: FIGS. 2A-2B illustrates that Kif mediates CD20 upregulation occurs upstream of transcription and translation. Cells were incubated with Kif (25 μM), Kif (25 μM) plus actinomycin D (10 μg/ml), Kif (25 μM) plus cycloheximide (100 μg/ml), or vehicle control (Con) for 48 hours and the cell surface levels of CD20 were analyzed by flow cytometry (FIG. 2A). Cells were incubated with Kif (25 μM) or vehicle control (Con) for 48 hours and CD20 mRNA levels were analyzed by RT-PCR (FIG. 2B).

[6] = tested on: Raji cells; test: Histone acetylation in Raji cells; assay type: cell-based
[7] = tested on: malignant B cell lines; test: ADCC assay with anti-CD20 antibody and CD16+ NK-92 effector cells; assay type: cell-based
Description: FIGS. 3A-3B illustrate Kif potentiates the activity of anti-CD20 antibodies in vitro. Cells were incubated with Kif (25 μM) or vehicle control (Con) for 48 hours prior to rituximab mediated ADCC (FIG. 3A) or CDC (FIG. 3B). ADCC assays. Target cells were labelled with CellTrace Violet according to the manufacturer's instructions (ThermoFisher Scientific). In brief, 1 million target cells were washed twice with warm PBS, then stained with 5 μM CellTrace Violet in PBS for 20 minutes at 37° C. Then, 5 volume equivalents of complete media were added and the resulting solution was incubated for 10 minutes at 37° C. The cells were pelleted and washed twice with fresh complete media, and the cell suspension was adjusted to 800,000 cells/mL in complete media. 25 μL of the target cell suspension (i.e., 20,000 target cells) were then in added to a 96-well plate. 25 μL of rituximab solutions at 4× the indicated concentrations in complete media or complete media were added to experiment wells and the control wells respectively, and the resulting suspensions were incubated for 30 minutes at 37° C. Subsequently, 50 μL of a 1.6 million CD-16+ NK-92 cells/mL suspension in complete media (E:T 4:1, i.e., 80,000 effector cells) were added to experiment wells and control wells (i.e., no antibody) and the plate was incubated for 4 hours at 37° C. in a fully humidified atmosphere of 5% CO2. Subsequently, 6 uL of 2.5 μg/mL was added to each well and after 10 minutes the plate was analyzed using an Attune NxT Flow Cytometer. Target cell viability was accessed by determining the percentage of CellTrace Violet and 7-AAD positive cells. ADCC was calculated as follows: % ADCC=% 7-AAD positive target cells in experiment well—% 7-AAD positive target cells in control wells.

[8] = tested on: malignant B cell lines; test: CDC assay with anti-CD20 antibody and pooled human serum; assay type: cell-based
Description: FIGS. 3A-3B illustrate Kif potentiates the activity of anti-CD20 antibodies in vitro. Cells were incubated with Kif (25 μM) or vehicle control (Con) for 48 hours prior to rituximab mediated ADCC (FIG. 3A) or CDC (FIG. 3B). CDC assays. 25 μL of the target cell suspension at 2 million cells/mL (i.e., 50,000 target cells) were added to a 96-well plate. 25 μL of antibody solutions at 4× the indicated concentrations in complete media or complete media were added to experiment wells and the control wells respectively, and the resulting suspensions were incubated for 30 minutes at 37° C. Subsequently, 50 μL of a 20% of pooled human serum in complete media were added to experiment wells and control wells (i.e., no antibody) and the plate was incubated for 1 hours at 37° C. in a fully humidified atmosphere of 5% CO2. Subsequently, 6 uL of 2.5 μg/mL was added to each well and after 10 minutes the plate was analyzed using an Attune NxT Flow Cytometer. Target cell viability was accessed by determining the percentage of 7-AAD positive cells. CDC was calculated as follows: % CDC=% 7-AAD positive target cells in experiment well—% 7-AAD positive target cells in control wells.

[9] = tested on: Raji cells and Rituximab resistant Raji 4RH cells; test: In vivo CD20 expression in subcutaneous Raji and Raji 4RH tumors (Western blot); settings: SCID mice, i.p., 10 mg/kg every second day over 8 days
Description: In vivo increase in CD20 expression of Raji cells and Rituximab resistant Raji 4RH cells. A study was performed to determine whether Kif can increase the expression of CD20 on Raji cells and Rituximab resistant Raji 4RH cells that had been subcutaneously inoculated into the flank of six week old SCID mice. After inoculation, tumors were permitted to grow for 10 days prior to treatment initiation. The mice were randomly divided into control and treatment groups. Control group received PBS, while the treatment group received Kif (i.p., 10 mg/kg) every second day over an 8 day period. The mice were then scarified, tumors were harvested, and CD20 expression was assessed by Western blot.

SMILES: O[C@H]1[C@H]2[C@H](O)CCCN2C[C@H]1O [Swain, swainsonine]
- cell surface expression of CD20 ([1]; Raji cells): significantly increase CD20 expression

SMILES: O=C1N[C@@H]2[C@@H](O)[C@@H](O)[C@H](O)[C@@H](CO)N2C1=O [Kif, kifunensine]
- cell surface expression of CD20 ([1]; Raji cells): increases cell surface expression of CD20 in Raji cells in a concentration dependent manner
- CD20 expression by western blotting ([1]; Raji cells, whole cell lysate, 48 hours (FIG. 1B)): increase CD20 expression was confirmed by western blotting
- CD20 upregulation in panel of cell lines [2]: upregulates CD20
- CD20 expression in rituximab resistant cell lines [3]: significantly increased CD20 expression
- CD20 expression in primary CLL samples [4]: increases CD20 expression in a dose-dependent and significant manner
- expression of MS4A1 [5]: altered the expression of the MS4A1
- histone acetylation [6]: did not significantly alter histone acetylation
- obinutuzumab potency in combination with Kif ([7]; ADCC): potency of obinutuzumab was also increased
- sensitization of rituximab resistant cell lines to rituximab (ADCC) ([7]; Raji 2R and Raji 4RH): sensitized to the action of rituximab
- rituximab potency in ADCC in combination with Kif ([7]; all cell lines tested, Kif 25 μM 48 hours before rituximab mediated ADCC (FIG. 3A)): potency of rituximab was increased
- complement mediated killing without antibody ([8]; Kif treated cells, absence of antibody): more susceptible to complement mediated killing in the absence of antibody
- susceptibility to CDC with rituximab and ofatumumab ([8]; cells treated with Kif prior to CDC (FIG. 3B)): rendered cells more susceptible
- sensitization of rituximab resistant cells to CDC ([8]; rituximab resistant cells, data not shown): not sensitized to CDC
- side effects [9]: no side effects were observed
- CD20 expression in tumors ([9]; Western blot, Raji and Raji 4RH): increases the expression of CD20

SMILES: OC[C@@H](O)[C@H]1NC[C@@H](O)[C@H]1O [DIM, 1,4-dideoxy-1,4-imino-D-mannitol]
- cell surface expression of CD20 ([1]; Raji cells): significantly increase CD20 expression

SMILES: C[C@@H]1C[C@@H]([C@H](O)CC2CC(=O)NC(=O)C2)C(=O)[C@@H](C)C1 [CHX, cycloheximide]
- effect on Kif mediated CD20 upregulation [1]: inhibit Kif mediated CD20 upregulation

SMILES: Cc1c2oc3c(C)ccc(C(=O)N[C@@H]4C(=O)N[C@H](C(C)C)C(=O)N5CCC[C@H]5C(=O)N(C)CC(=O)N(C)[C@@H](C(C)C)C(=O)O[C@@H]4C)c3nc-2c(C(=O)N[C@@H]2C(=O)N[C@H](C(C)C)C(=O)N3CCC[C@H]3C(=O)N(C)CC(=O)N(C)[C@@H](C(C)C)C(=O)O[C@@H]2C)c(N)c1=O [ACT-D, actinomycin D] (I: T[dV]P[Sar][NMeV] / II: T[dV]P[Sar][NMeV]; ester I:1-I:C, II:1-II:C; linker I:N-II:N via Actinocin(9to1))
- effect on Kif mediated CD20 upregulation [1]: inhibit Kif mediated CD20 upregulation

SMILES: OC[C@H]1NC[C@@H](O)[C@@H](O)[C@@H]1O [DMJ, 1-deoxymannojirimycin hydrochlorie]
- cell surface expression of CD20 ([1]; Raji cells): significantly increase CD20 expression
